This note sets out measurements from ChEMBL document CHEMBL4699440, “Comprehensive review on the anti-bacterial activity of 1,2,3-triazole hybrids” (Eur J Med Chem, 2019).

Values after ≈ are worked out from the molar mass of the structure shown.

By IC50 is commonly meant the point on the concentration scale where inhibition reaches its midpoint. Read a low IC50 as greater potency. As a reminder, the MIC is the lowest concentration found to suppress growth.

Assay [1] relates to Salmonella enterica. The assay can be described thus: Antibacterial activity against Salmonella enterica MTCC 3224 incubated overnight by broth dilution technique. Type of assay: functional, organism-based.
The test system of assay [2] is Pseudomonas aeruginosa. Put plainly: Antibacterial activity against Pseudomonas aeruginosa MTCC 2453 incubated overnight by broth dilution technique. Type of assay: functional, organism-based. On the technique in general: Broth dilution looks for growth in wells or tubes with falling amounts of substance.
For assay [3], the system named is Enterococcus faecalis. Put plainly: Antibacterial activity against Enterococcus faecalis MTCC 439 incubated overnight by broth dilution technique. It counts as functional, organism-based.
The subject of assay [4] is Escherichia coli. Put plainly: Antibacterial activity against Escherichia coli ATCC 25922 incubated overnight by broth dilution technique. It counts as functional, organism-based.
For assay [5], the system named is Klebsiella pneumoniae. The assay can be described thus: Antibacterial activity against Klebsiella pneumoniae ATCC 700603 incubated overnight by broth dilution technique. It counts as functional, organism-based.
The subject of assay [6] is Staphylococcus aureus. The assay can be described thus: Antibacterial activity against Staphylococcus aureus 209P JC1 incubated for 20 hrs by agar dilution method. Type of assay: functional.
For assay [7], the system named is Escherichia coli. The assay can be described thus: Antibacterial activity against Escherichia coli NIHJ JC2 incubated for 20 hrs by agar dilution method. It counts as functional. (Agar dilution tests growth on a series of plates holding different concentrations.)
Assay [8] deals with Pseudomonas aeruginosa. The assay can be described thus: Antibacterial activity against Pseudomonas aeruginosa 12 incubated for 20 hrs by agar dilution method. It counts as functional.
Assay [9] concerns Escherichia coli. The assay can be described thus: Antibacterial activity against Escherichia coli ATCC 25922 after overnight incubation by CLSI M7-A9 based method. Type of assay: functional.
In assay [10] the test system is Escherichia coli. The assay can be described thus: Antibacterial activity against Escherichia coli JM109 after overnight incubation by CLSI M7-A9 based method. It counts as functional.
Assay [11] has as its system Staphylococcus aureus. Put plainly: Antibacterial activity against Staphylococcus aureus CIP 6525 after overnight incubation by CLSI M7-A9 based method. Type of assay: functional.
Assay [12] concerns Enterococcus faecalis. The assay can be described thus: Antibacterial activity against Enterococcus faecalis ATCC 29212 after overnight incubation by CLSI M7-A9 based method. It counts as functional.
The test system of assay [13] is Staphylococcus aureus. Put plainly: Antibacterial activity against Staphylococcus aureus ATCC 25923 incubated for 24 hrs by microdilution method. It counts as functional.
The test system of assay [14] is Escherichia coli. The assay can be described thus: Antibacterial activity against Escherichia coli ATCC 25922 incubated for 24 hrs by microdilution method. It counts as functional.
Assay [15] has as its system Candida albicans. The assay can be described thus: Antifungal activity against Candida albicans ATCC 50193 incubated for 24 hrs by microdilution method. It counts as functional.
For assay [16], the system named is Proteus mirabilis. Put plainly: Antibacterial activity against Proteus mirabilis ATCC 35659 incubated for 24 hrs by microdilution method. It counts as functional.
Assay [17] concerns Enterococcus faecalis. Put plainly: Antibacterial activity against Enterococcus faecalis ATCC 29212 incubated for 24 hrs by microdilution method. It counts as functional.
Assay [18] concerns Aspergillus brasiliensis. The assay can be described thus: Antifungal activity against Aspergillus brasiliensis ATCC 16404 incubated for 24 hrs by microdilution method. Type of assay: functional.
For assay [19], the system named is Bacillus cereus. Put plainly: Antibacterial activity against Bacillus cereus ATCC 10876 incubated for 24 hrs by microdilution method. It counts as functional.
The test system of assay [20] is Pseudomonas aeruginosa. Put plainly: Antibacterial activity against Pseudomonas aeruginosa ATCC 27853 incubated for 24 hrs by microdilution method. Type of assay: functional.

For the molecule `O=C(O)c1ccc(-n2cc(COc3cccc4cccnc34)nn2)cc1`, the IC50 in [1], in [2], in [3], in [4] and in assay [5] was 106 µg/mL (≈ 306 µM) each time.
In the case of `NC1CCN(c2c(Cl)c3c(c(=O)c(C(=O)O)cn3C3CC3)c3[nH]nnc23)C1` (stereo not given), the MIC in assay [6], in assay [7] and in assay [8] was 0.05 µg/mL (≈ 0.129 µM) each time.
As to `C[C@H](c1ccccc1)N(CC(N)=O)C(=O)CN(C(=O)CN(Cc1cn(CCN)n[n+]1C)C(=O)CN(C(=O)CN(C(=O)CN(Cc1cn(CCN)n[n+]1C)C(=O)CN(C(=O)CN(C(=O)CNCc1cn(CCN)n[n+]1C)[C@H](C)c1ccccc1)[C@H](C)c1ccccc1)[C@H](C)c1ccccc1)[C@H](C)c1ccccc1)[C@H](C)c1ccccc1`, the minimum inhibitory concentration (MIC) in assay [9], in assay [10], in assay [11] and in assay [12] was greater than 1.6 µg/mL throughout.
`C[C@H](c1ccccc1)N(CC(N)=O)C(=O)CN(C(=O)CN(Cc1cn(CC2CCCCC2)n[n+]1C)C(=O)CN(C(=O)CN(C(=O)CNCc1cn(CC2CCCCC2)n[n+]1C)[C@H](C)c1ccccc1)[C@H](C)c1ccccc1)[C@H](C)c1ccccc1`: the MIC in assay [9], in assay [10], in assay [11] and in [12] was greater than 1.6 µg/mL in each case.
On to `CCCCCCCCCCCCCCn1nnc(-c2n[nH]c(=S)n2N)c1-c1n[nH]c(=S)n1N`, for which the MIC in assay [13], in assay [14], in [15], in [16], in assay [17] and in assay [18] was 1 µg/mL (≈ 2.03 µM) in each case. Also, the MIC in assay [19] and in assay [20] was 1 µg/mL (≈ 2.03 µM) throughout.
Turning to `CC1CCN(c2c(F)c3c(c(=O)c(C(=O)O)cn3C3CC3)c3[nH]nnc23)CC1`, the MIC in assay [6], in assay [7] and in [8] was 0.05 µg/mL (≈ 0.13 µM) each time.
With `CCCCCCCCn1nnc(-c2n[nH]c(=S)n2N)c1-c1n[nH]c(=S)n1N`, the MIC in [13], in assay [14], in assay [15], in assay [16], in assay [17] and in assay [18] was 1 µg/mL (≈ 2.44 µM) throughout. The MIC in assay [19] and in assay [20] was 1 µg/mL (≈ 2.44 µM) in each case.
Take `CCCCCCCCCCCCn1nnc(-c2n[nH]c(=S)n2-c2ccccc2)c1-c1n[nH]c(=S)n1-c1ccccc1`: the MIC in [13], in assay [14], in [15], in assay [16], in [17] and in assay [18] was 2 µg/mL (≈ 3.4 µM) each time. In addition, the MIC in [19] and in assay [20] was 2 µg/mL (≈ 3.4 µM) in each case.
With `CCCCCCCCCCCCCCn1nnc(-c2n[nH]c(=S)n2-c2ccccc2)c1-c1n[nH]c(=S)n1-c1ccccc1`, the minimal inhibitory concentration (MIC) in [13], in assay [14], in assay [15], in assay [16], in assay [17] and in assay [18] was 2 µg/mL (≈ 3.25 µM) throughout. In addition, the MIC in assay [19] and in assay [20] was 2 µg/mL (≈ 3.25 µM) each time.
In the case of `C[C@H](c1ccccc1)N(CC(N)=O)C(=O)CN(C(=O)CN(Cc1cn(CCN)n[n+]1C)C(=O)CN(C(=O)CN(C(=O)CNCc1cn(CCN)n[n+]1C)[C@H](C)c1ccccc1)[C@H](C)c1ccccc1)[C@H](C)c1ccccc1`, the MIC in [9], in assay [10], in [11] and in [12] was greater than 1.6 µg/mL throughout.
Take `C[C@H](c1ccccc1)N(CC(N)=O)C(=O)CN(C(=O)CN(Cc1cn(CCN)nn1)C(=O)CN(C(=O)CN(C(=O)CN(Cc1cn(CCN)nn1)C(=O)CN(C(=O)CN(C(=O)CN(Cc1cn(CCN)nn1)C(=O)CN(C(=O)CN(C(=O)CNCc1cn(CCN)nn1)[C@H](C)c1ccccc1)[C@H](C)c1ccccc1)[C@H](C)c1ccccc1)[C@H](C)c1ccccc1)[C@H](C)c1ccccc1)[C@H](C)c1ccccc1)[C@H](C)c1ccccc1`: the MIC in [9], in assay [10], in assay [11] and in [12] was greater than 1.6 µg/mL in each case.
On to `NC1CCN(c2c(F)c3c(c(=O)c(C(=O)O)cn3C3CC3)c3[nH]nnc23)C1` (stereo not given), for which the MIC in assay [6], in assay [7] and in assay [8] was 0.05 µg/mL (≈ 0.134 µM) in each case.
Turning to `NCC1CCN(c2c(F)c3c(c(=O)c(C(=O)O)cn3C3CC3)c3[nH]nnc23)C1` (stereo not given), the MIC in assay [6], in assay [7] and in [8] was 0.05 µg/mL (≈ 0.129 µM) throughout.
